Here are results for 15 molecules from BindingDB's records for doi:10.1016/j.bioorg.2016.05.009 (Birla Institute of Technology, 2016).

pIC50: −log10 of the molar value.

The assay has as its target Gag-Pol polyprotein (Human immunodeficiency virus type 1 group M subtype B (isolate HXB2), UniProt P04585). Put plainly: HIV-1 RT Colorimetric Assay. On the procedure:
The reaction mixture was set with template primer complex, RT enzyme and dNTPs in a lysis buffer with or without inhibitors. The reaction mixture was incubated at 37 °C for 1 h and then transferred to streptavidin-coated microtitre plate (MTP). The biotin-labeled dNTPs that were incorporated in the template due to activity ofRT, bound to streptavidin. The unbound dNTPs were washed using wash buffer and anti-DIG-POD was added to the MTP. The DIGlabeled dNTPs incorporated in the template were bound to an anti-DIG-POD antibody. The unbound anti-DIG-POD was washed again with washing buffer and the peroxide substrate (ABST) was added to the MTP. A colored reaction product was produced during the cleavage of the substrate catalyzed by a peroxide enzyme. The absorbance of the sample was determined as an optical density (OD) at 405 nm using a micro titer plate ELISA reader.

The pIC50 is the negative decadic logarithm of the IC50, by convention in mol/L. As to `COc1ccc2c(c1)CCCN2CCC(=O)N1CCN(c2cccc(Cl)c2Cl)CC1` [1-(4-(2,3-dichlorophenyl)piperazin-1-yl)-3-(6-methoxy-3,4-dihydroquinolin-1(2H)-yl)propan-1-one (6o)], the pIC50 was 4.84.

On to `COc1ccc2c(c1)CCCN2CCC(=O)N1CCN(c2ccccc2Cl)CC1` [1-(4-(2-chlorophenyl)piperazin-1-yl)-3-(6-methoxy-3,4-dihydroquinolin-1(2H)-yl)propan-1-one (6i)], for which the pIC50 is 4.48.

Take `COc1ccc2c(c1)CCCN2CCC(=O)N1CCN(c2ccccc2F)CC1` [1-(4-(2-fluorophenyl)piperazin-1-yl)-3-(6-methoxy-3,4-dihydroquinolin-1(2H)-yl)propan-1-one (6g)]: the pIC50 is 4.32. This pIC50 and that of the molecule before are within 0.2 log units of each other.

Molecule `COc1ccc2c(c1)CCCN2CCC(=O)N1CCN(c2cccc(Cl)c2)CC1` [1-(4-(3-chlorophenyl)piperazin-1-yl)-3-(6-methoxy-3,4-dihydroquinolin-1(2H)-yl)propan-1-one (6j)] gave a pIC50 of 4.73.

In turn, `COc1ccc2c(c1)CCCN2CCC(=O)N1CCN(c2ccc(Cl)cc2)CC1` [1-(4-(4-chlorophenyl)piperazin-1-yl)-3-(6-methoxy-3,4-dihydroquinolin-1(2H)-yl)propan-1-one (6k)] had a pIC50 of 4.60.

Turning to `COc1ccc2c(c1)CCCN2CCC(=O)N1CCN(c2ccc(F)cc2)CC1` [1-(4-(4-fluorophenyl)piperazin-1-yl)-3-(6-methoxy-3,4-dihydroquinolin-1(2H)-yl)propan-1-one (6h)], the pIC50 is 4.11. Compared with the last molecule, the pIC50 is 0.49 log units lower.

Turning to `COc1ccc2c(c1)CCCN2CCC(=O)N1CCN(Cc2ccccc2)CC1` [1-(4-benzylpiperazin-1-yl)-3-(6-methoxy-3,4-dihydroquinolin-1(2H)-yl)propan-1-one (6m)], the pIC50 was under 4.00.

In turn, `COc1ccc2c(c1)CCCN2CCC(=O)N1CCN(c2ccccc2OC)CC1` [3-(6-methoxy-3,4-dihydroquinolin-1(2H)-yl)-1-(4-(2-methoxyphenyl)piperazin-1-yl)propan-1-one (6d)] gave a pIC50 of 4.28.

`COc1cccc(N2CCN(C(=O)CCN3CCCc4cc(OC)ccc43)CC2)c1` [3-(6-methoxy-3,4-dihydroquinolin-1(2H)-yl)-1-(4-(3-methoxyphenyl)piperazin-1-yl)propan-1-one (6e)] showed a pIC50 of 4.23.

Molecule `COc1ccc(N2CCN(C(=O)CCN3CCCc4cc(OC)ccc43)CC2)cc1` [3-(6-methoxy-3,4-dihydroquinolin-1(2H)-yl)-1-(4-(4-methoxyphenyl)piperazin-1-yl)propan-1-one (6f)] showed a pIC50 of under 4.00.

On to `COc1ccc2c(c1)CCCN2CCC(=O)N1CCN(c2ccc([N+](=O)[O-])cc2)CC1` [3-(6-methoxy-3,4-dihydroquinolin-1(2H)-yl)-1-(4-(4-nitrophenyl)piperazin-1-yl)propan-1-one (6l)], for which the pIC50 is 4.08.

On to `COc1ccc2c(c1)CCCN2CCC(=O)N1CCN(c2ccccn2)CC1` [3-(6-methoxy-3,4-dihydroquinolin-1(2H)-yl)-1-(4-(pyridin-2-yl)piperazin-1-yl)propan-1-one (6n)], for which the pIC50 was 4.31.

`COc1ccc2c(c1)CCCN2CCC(=O)N1CCN(c2ccccc2C)CC1` [3-(6-methoxy-3,4-dihydroquinolin-1(2H)-yl)-1-(4-o-tolylpiperazin-1-yl)propan-1-one (6b)]: the pIC50 was 4.90.

The molecule `COc1ccc2c(c1)CCCN2CCC(=O)N1CCN(c2ccc(C)cc2)CC1` [3-(6-methoxy-3,4-dihydroquinolin-1(2H)-yl)-1-(4-p-tolylpiperazin-1-yl)propan-1-one (6c)] showed a pIC50 of 4.55.

Consider `COc1ccc2c(c1)CCCN2CCC(=O)N1CCN(c2ccccc2)CC1` [3-(6-methoxy-3,4-dihydroquinolin-1(2H)-yl)-1-(4-phenylpiperazin-1-yl)propan-1-one (6a)], for which the pIC50 is 4.62.
